Experimental data: patent publication US20120053076A1, “METHODS FOR IDENTIFICATION” (Cambridge Enterprise Limited, priority 2009, published 2012)
Like-named read-outs stand apart in the source and are kept apart here.

How the values were obtained:
[1] = tested on: Jurkat-D3B cells; test: SDF-1α induced migration of Jurkat-D3B cells expressing sstr2; format: cell-based, human
Experimental: Methods: Total mRNA was prepared from Panc-1 cells (a human pancreas cell line which is well known to express high levels of sstr2) using the RNAqueous 4PCR kit (Ambion, Cat code #1914) in accordance with the manufacturer's instructions. The mRNA was then reverse transcribed (using the RETROscript kit; Ambio) to yield a cDNA preparation. A full length cDNA of the sstr2 gene was then obtained by PCR (using a Peltier PTC-200 thermal cycler using the following cycle times and conditions: 94° C. for 2 min, followed by 30 cycles of 94° C., for 30 sec, 55° C. for 30 sec, 72° C. for 1 min and finally 72° C. for 10 min), and isolated by preparative gel electrophoresis. The sequence of the sstr2 cDNA was confirmed by sequencing. The sstr2 cDNA was treated with EcoRI and Xhol to generate sticky ends, which allowed directional cloning into the polylinker of the plasmid pcDNA3.1+ (Invitrogen) followed by ligation (100 ligation reactions were run with 400 T4 DNA ligase (New England Biolabs) and the maximal amounts of DNA with an insert:plasmid ratio of 3:1 in ligase buffer incubated overnight at 13° C.). […]
A number of individual cell lines were obtained in this way, which expressed significant levels of sstr2 on the cell surface, detected by flow cytometry using the human-sstr2 antibody (Sigma, 50694; see Example 3 for details of the flow cytometry protocol used). […]

[2] = tested on: Panc-2H4 cells; test: Human Panc-2H4 insulin suppression assay; format: cell-based
Description: Two different assays for “classical” sstr2 functions were adopted: (1) cultured foetal rat pituitary cells secreted growth hormone which is inhibited by sstr2 agonists in a dose-dependent fashion and (2) selected glucose-sensitive sub-clones of the human Panc-1 cell line secrete insulin which is inhibited by sstr2 agonists in a dose-dependent fashion.
Glucose-sensitive sub-clones of the human Panc-1, a cell line derived from a pleiomorphic epithelioid carcinoma of the exocrine pancreas, were obtained essentially as described by Hamil et al. (2008) Biomed. Sci. Instrum. 44:441-6. Briefly, Panc-1 cells were subcultured in 24 well plates, and the medium was supplemented with an additional 5% glucose. […] The resulting sub-lines were then tested for glucose sensitivity by preparing wells of a 96-well plate (5×10^4 cells per well) which were then exposed to cultured medium containing a range of glucose concentrations (low glucose DMEM, DMEM, DMEM+1% glucose, DMEM+2.5% glucose and DMEM+5% glucose). After 24 hrs incubation, the conditioned medium was collected and assayed for insulin secretion by ELISA (Linco; cat# EZHI-14K) in accordance with the manufacturer's instructions.
Further 96 well plates were prepared using Panc-2H4 (5×10^4 cells per well) in DMEM. After 24 hrs, the medium was switched to DMEM+5% glucose containing various test agents at various concentrations (triplicate wells per condition). After a further 24 hrs, the conditioned medium was harvested and the concentration of insulin was determined by ELISA as described above.
Results were reported as the mean±SD, expressed as the fold change from cells in the presence of vehicle only.

[3] = tested on: Jurkat T cells; test: SDF-1α induced migration of parental Jurkat T cells; format: cell-based, human
Experimental: Results: The level of the SDF-1α, receptor CXCR4 was similar on Jurkat-D3B and the parental Jurkat T cell line. Furthermore, the Jurkat-D3B cells responded to SDF-1α in a Transwell® chemotaxis assay (see Example 1 for the methodology employed) over a similar concentration range to the parental cell line.
Jurkat T cells and Jurkat-D3B cells were induced to migrate in response to 100 ng/ml SDF-1α (R&D systems; the concentration of SDF-1α which induced maximal cell migration in both lines). The BSCI BN83250 was then added at various concentrations between 0 nM and 1000 nM (each in triplicate) to both the upper and lower compartments (at the same concentration in each compartment, so as not to create a gradient of BSCI concentration). DMSO (1% final concentration) was used as the vehicle, and was present in all wells at equal concentration.

[4] = Oral bioavailability; conditions: in vivo

Compound | Inhibition of Jurkat-D3B migration, in words [1] | EC50 ([2]; Homo sapiens, Table 3, read-out: Human Panc-2H4 insulin suppression assay ED50) [µM] | Inhibition of SDF-1α induced migration of Jurkat T cells, in words [3] | EC50 ([2]; Table 3, read-out: Human Panc-2H4 insulin suppression assay ED50) [µM] | Human Panc-2H4 insulin suppression assay Max effect ([2]; Table 3, suppression compared to vehicle) [%] | Panc-2H4 insulin suppression assay (“classical” target) Max Effect ([2]; Table 5) [%] | EC50 ([2]; Table 5, read-out: Panc-2H4 insulin suppression assay (“classical” target) ED50) [µM] | Oral bioavailability, in words [4]
CC(C)(C)C(=O)N[C@H]1CCCNC1=O [Valerolactam, (S)-3-(2′,2′-dimethylpropionoylamino)-tetrahydropyridin-2-one] | sensitive to inhibition | > 1 |  |  |  |  |  | 
(S)-3-(2′,2′-dimethyldodecanoyl)amino-caprolactam [BN83250] |  |  | little or no effect | 1 | 28 | 28 | 1 | only poorly orally bioavailable
